# Patent US7968516B2, “Treatment of multiple sclerosis and other autoimmune diseases by use of calpin inhibitors” (ProTor Pharma Corporation, priority 2004, dated 2011)
# Where a SMILES comes first, the peptide text is derived from it. [ ]: non-standard residue; d: D form. Cya = N[CH](CS(=O)(=O)O)C(=O)O
# Columns and labels:
# [1] = test system: amyloid precursor protein (APP); assay: Experiment 4: accumulation of amyloid precursor protein in axons; format: in vivo, mice; conditions: spinal cord, day 30, anti-APP antibody
# From the text: Spinal cord tissue taken from mice at day 30 was stained with a fluorescently-labeled anti-APP antibody.
# calpain = assay: Experiment 2: immunofluorescent staining for calpain, CD11b and CD45 in spinal cord white matter; format: in vivo; conditions: untreated versus CLA-treated EAE mice
# Procedure: Expression of Calpain in Spinal Cord White Matter: Expression of calpain was determined in spinal cord tissues collected from all experimental and control groups of mice at the end of the experiment. Sections of paraformaldehyde-fixed tissues were stained with antibodies against calpain (FITC conjugated), CD11b (MΦ/microglia marker)(Texas Red-conjugated) and CD45 (leukocyte common antigen) (FITC-conjugated). Referring to FIG. 5, six 10 μm sections were stained with anti-calpain antibody and specific cell marker antibodies (CD45, CD11b). Positive staining for calpain (A, B, C); cells positive for MΦ/microglia marker (CD11b^+) (D, E, F); cells positive for leukocyte common antigen (CD 45^+)(G, H, I). 20× magnification. […] All leukocytes including MΦ, but not microglia, are stained with CD45.
# [2] = test system: MOG aa35-55 induced EAE in C57BL/6J mice; assay: Experiment 3: EAE clinical scores, CLA twice daily after disease process started; format: in vivo
# Procedure: (§1) Clinical evaluation: Mice were evaluated daily for clinical signs of disease for up to 19 days after inoculation. Clinical severity was assessed on a scale of 0-6 as follows: • […] abnormality • 1 ? mild hind limb weakness (some difficulty righting themselves when turned on their backs), sometimes associated with a weak or floppy tail. • 2 ? moderate hind limb weakness associated with a floppy tail. • 3 ? paralysis of hind limbs, sometimes more marked on one side, but no forelimb weakness. • 4 ? hind leg paralysis accompanied by forelimb weakness. • 5 ? quadriplegia; paralysis of both hind limbs and forelimbs. • 6 ? moribund or death.
# To induce EAE, mice were each inoculated once with MOG aa35-55 in Complete Freund's Adjuvant (CFA) and Pertussis toxin as previously described. Thirty 7 to 8-week-old female C57BL/6J mice (Jackson Laboratories, Bar Harbor, Mass.) were used in this experiment. […] Controls included two groups of 4 mice for CLA only and CFA/PT only and 4 were left as normal controls. CLA was dissolved in PBS and each mouse in the treatment group was injected i.p. with 200 μl of PBS containing 0.5 mg of CLA every 12 hours until the end of the experiment on day 25 pi. Mice were evaluated daily for clinical signs and symptoms of EAE and graded on a 0-6 scale for up to 25 days after inoculation as detailed above. Scores of asymptomatic mice (score=0) were included in the calculation of the daily mean clinical score for each group.
# [3] = test system: spinal cord axons of EAE mice; assay: Experiment 4: axonal integrity by LFB staining; format: in vivo; conditions: day 30 post-immunization
# From the text: Evaluation of axonal integrity using LFB staining: Spinal cord tissue was taken from mice at day 30 post-immunization, approximately 13 days into the chronic phase of EAE. Myelin is stained a blue color by LFB, and the appearance of a normal myelin-coated axon, taken from spinal cord tissue, is shown longitudinally in FIG. 8A.
# [4] = test system: outer hair cells of the cochlea; assay: Experiment 6: acoustic trauma, outer hair cell counts; format: in vivo, chinchillas; conditions: 7 mg/kg/day i.p. for seven days; as a function of distance from apex of cochlea
# Procedure: (§2) Twelve chinchillas were divided into treatment and control groups (six animals each). The treatment groups received 7 mg/kg/day CLA i.p., for seven days. The control groups received an identical volume of PBS vehicle. Starting on day 0, all of the animals were exposed to a 105 decibel sound pressure level (SPL) noise with a frequency band centered on 4 kilohertz (kHz). The noise exposure lasted for 48 hours, ending two days after the beginning of the dose. Approximately 4 weeks after the noise exposure and dosing, the animals were anesthetized, tracheotimized, and placed upon a heating pad (37 degrees C.). A silver-ball electrode was attached to the round window of the left and right ears to record the compound action potential (CAP). CAP input functions were recorded at 0.5, 1, 2, 4, 8, 16 kHz tone burst levels generated by a digital-to-analog converter attached to a computer. The CAP threshold shift is the change in sound level required to generate an action potential at the electrode subsequent to noise exposure, and increases in the threshold shift reflect increased hearing loss. […] After the CAP threshold shifts were measured, the animals were decapitated, and the cochleae were removed. The hair cells from 11 cochleae were evaluated histologically. […] The numbers of outer hair cells (#OHC) were counted as a function of the distance from the apex of the cochlea. […]
# [5] = test system: chronic phase of EAE in C57BL/6J mice; assay: Experiment 4: chronic phase EAE clinical scores; format: in vivo; conditions: 30 days
# Procedure: as §1
# The chronic phase of EAE occurs after the clinical score of an affected mouse reaches a plateau at the highest level of the acute phase of the disease. In this chronic phase, more extensive damage occurs to nerve axons, beyond the demyelination observed in the acute phase of the disease (22). EAE was induced in 7-8 week-old female C57BL/6J “mice” by subcutaneous (s.c.) injection in each flank with 100 μl of an emulsion containing […] Freund's Adjuvant supplemented with 500 μg heat inactivated mycobacterium tuberculosis (Sigma St. Louis, Mo.) and 300 μg MOG 35-55. 100 ng of Pertussis toxin (PT) was given intraperitoneally on days 0 and 2 post-immunization. […]
# [6] = test system: chinchillas exposed to 105 decibel SPL noise; assay: Experiment 6: acoustic trauma, compound action potential (CAP) threshold shift; format: in vivo; conditions: 7 mg/kg/day i.p. for seven days; about 4 weeks after noise exposure
# Procedure: as §2
# [7] = test system: spinal cord white matter of EAE mice; assay: Experiment 2: Luxol Fast Blue staining, myelin content of spinal cord; format: in vivo; conditions: lumbar spinal cord, CLA-treated EAE mice
# Procedure: Luxol Fast Blue (LFB) Staining of Spinal Cord Tissues: This staining method, which identifies changes in myelin content of CNS tissues, was performed as previously described (39). Six-10 μm tissue sections were prepared from the lumbar spinal cords of all mice at the end of the experiment. The sections were stained with LFB and counterstained with eosin and cresyl violet to observe changes in the myelin content of the control and treatment groups: A: CFA control; B: MOG/CFA immunized: C; MOG/CFA immunized and CLA-treated. 20× magnification. All myelin containing regions stain blue.
# [8] = Experiment 7: plasma and retina concentrations after oral CLA-acetal; format: in vivo, Sprague-Dawley rats; conditions: after 10 mg/kg oral CLA-acetal
# Procedure: Male Sprague-Dawley rats (n=5 per time point, weight 200-250 g) were administer 10 mg/kg CLA-acetal by oral gavage, formulated as a 0.6% solution in phosphate-buffered saline. At 0.1, 0.25, 0.5, 1, 2, 4, 8, 12 and 24 hours, the rats were anesthetized, blood samples were collected, and the retinas were isolated. The plasma samples (200 μL) were treated with 1 mL methanol and centrifuged to remove protein. The supernatants from centrifugation were evaporated, and the residue was taken up in 0.02% aqueous ammonium heptafluorobutyrate (1 mL). The retina samples were homogenized, treated with methanol, centrifuged, and evaporated, and the residue was taken up in 0.02% aqueous ammonium heptafluorobutyrate (1 mL). The plasma and retinal concentrations of CLA and CLA-acetal were determined by liquid chromatography followed by turbo ion spray mass spectrometry on an MDS-Sciex API 4000 triple-quadropole mass spectrometer equipped with a turbo ion spray source. Elution peaks yielding ions corresponding to CLA or CLA-acetal were integrated and used to determine the amount of compound present, by reference to standards. Data reduction was performed using Sciex Analyst version 1.3 software. The peak concentrations (Cmax) were estimated from the concentrations of CLA measured over time.
# [9] = test system: spinal cord white matter of EAE mice; assay: Experiment 2: H&E staining, cellular infiltration of spinal cord white matter; format: in vivo; conditions: CLA-treated EAE mice, tissues at end of experiment
# Procedure: Hematoxylin and Eosin Staining (H&E): H&E staining was used to show cellular infiltration of spinal cord white matter in mice with acute EAE in comparison with other groups of CFA control and CLA-treated EAE mice, as previously described (14). All staining was performed on tissues that were collected at the end of the experiment. In FIG. 3, 6-10 μm tissue sections were prepared from spinal cords of all mice at the end of the experiment. These tissues were stained with H&E to show inflammatory infiltration (indicated by arrows). A: CFA control; B: MOG/CFA immunized; C: MOG/CFA immunized and CLA-treated. 20× magnification.
# [10] = test system: MOG aa35-55 induced EAE in C57BL/6J mice; assay: Experiment 1: EAE clinical scores, CLA started at immunization; format: in vivo
# Procedure: To induce EAE, 7-8 week-old female C57BL/6J mice (Jackson Laboratories, Bar Harbor, Md.) were used. Animals were housed according to IACUC regulations in an AAALAC certified facility. Each was injected subcutaneously (s.c.) at two sites on the flanks with 300 μg of myelin oligodendrocyte glycoprotein (MOG) peptide 35-55 in Complete Freund's Adjuvant (CFA) twice with a one week interval between injections, as previously reported (14). Pertussis toxin (PT) was given intraperitoneally on days 0 and 2 post-immunization. CLA was administered to 12 MOG/CFA immunized mice, i.p. at an initial dose of one mg/mouse, starting on the day of the second immunization, followed by 0.5 mg/mouse/day until the end of the experiment, which lasted 19 days. […]
# as §1, with “death. […]” for “death.”
# [11] = test system: cochlear and vestibular hair; conditions: cited from earlier work
# EAE in rats = conditions: cited from earlier work
# [12] = cited from earlier work
# [13] = CLA 0.5 mg i.p. every 12 hours from day 7 pi
# [14] = CLA twice daily started after signs of stage 2 EAE
structure (smiles),measurement,setting,value
"CC(C)CC(NC(=O)C(N)CS(=O)(=O)O)C(=O)NC(C=O)CCCNC(=N)N (stereo not drawn) [CLA, cysteyl-leucyl-argininal] (H-[Cya]-Leu-Arg-aldehyde; configuration not given here)",accumulation of APP in axons,[1],reduces accumulation of APP
same,CD45+ cells (leukocytes),calpain,only marginally higher than CLA-treated EAE mice
same,expression of calpain in spinal cord white matter,calpain,elevated in untreated EAE mice (FIG. 5B) as compared with CLA-treated EAE mice
same,presence of macrophages/microglia (CD11b+ cells),calpain,higher in untreated EAE mice (FIG. 5E) than CLA-treated EAE
same,onset of signs of EAE,[2]; [13],15 day pi
same,severity of EAE symptoms,[2]; [13],did not develop severe paralysis of the limbs
same,average clinical score (ACS) on day 17 pi,[2]; [14],1.60
same,clinical score on day 25 pi,[2]; [14],less than two
same,clinical score on day 25 pi,[2]; D7 CLA-treated MOG/CFA mice,less than one
same,average clinical score (ACS) on day 17 pi,"[2]; D7 CLA-treated MOG/CFA mice, 0.5 mg i.p. every 12 hours",0.5
same,health of CLA only mice,"[2]; control mice, CLA only",remained healthy
same,axonal integrity (LFB staining),[3],marked improvement in axonal integrity
same,numbers of outer hair cells (#OHC),[4],increase in the number of outer hair cells at all distances from the apex
same,maximum clinical score,[5]; CLA 2 mg/mouse/day i.p. from day 7 (prior to onset),below 0.5
same,maximum clinical score,[5]; CLA 2 mg/mouse/day i.p. from day 12 (after onset),< 1.0
same,CAP threshold shift,[6],decreased the CAP threshold shift
same,demyelination (LFB staining),[7],fewer areas of demyelination
same,concentrations in retina compared with plasma,[8],much higher in retina than in plasma
same,cellular infiltration and perivascular cuffing (H&E),[9],moderate cellular infiltration and perivascular cuffing
same,average clinical score (ACS),"[10]; MOG/CFA immunized mice, CLA i.p. one mg/mouse then 0.5 mg/mouse/day, scale 0-6, 19 days",1.86
same,effect of CLA only or CFA/CLA on mice,[10]; control mice not immunized with MOG,no effect
CC(=O)N[C@@H](CC(C)C)C(=O)N[C@@H](CC(C)C)C(=O)N[C@H](C=O)CCCNC(=N)N [leupeptin],protection from gentamycin ototoxicity,[11],protects cochlear and vestibular hair from gentamycin oxotoxicity
same,suppression of EAE,EAE in rats,suppressing EAE
same,cellular permeability,[12],poor cellular permeability
